Experiments:
[1] = test system: mice with ConA induced liver damage; test: ConA induced immunological liver damage model in mice; assay type: in vivo, Kunming mice; details: for protective effect against liver damage induced by ConA (summary): mice, intragastric, 3 days
Procedure: Kunming mice of clean grade (male, weight 20±2 g, supplied by the Laboratory Animal Center, Henan Province) are randomly divided into groups with 6 mice in each group. Bifendate (Xinchang Pharmaceutical Factory of Zhejiang Pharmaceutical Co., Ltd, 200 mg/kg) is used as positive control, andrographolide (AD) is provided by Furen Pharmaceutical Group Co., Ltd, and the test compounds are synthesized by the inventors with purities higher than 99.0%. Normal control group and model group are intragastrically given 0.5% sodium carboxymethylcellulose (CMC-Na), and test groups are given 0.5% CMC-Na suspensions with AD (0.88 mmol/kg), and low dosage (0.66 mmol/kg) and high dosage (0.88 mmol/kg) of compound A, B and C, respectively. The drugs are given for 3 days. One hour after the last administration, all mice except those in the normal control group are injected with a single dose of ConA (20 mg/kg) through the caudal vein. After 8 h, the eyeball is enucleated to collect blood, which is centrifuged at 3000 rpm for 15 min to separate serum. ALT and AST are tested according to the kit specification, respectively (Nanjing Jiancheng Bioengineering Institute). The left lobe of liver is taken to prepare 10% homogenate using physiological saline, MDA is determined according to the kit specification (Nanjing Jiancheng Bioengineering Institute). To 50 μL liver homogenate is added 2 mL of 0.5 mol/L KOH-methanol solution and kept at 50° C. water bath to isomerize for 20 minutes, then absorbance (A value) is measured at 278 nm, using the A value per mL of homogenate to represent the PGE2 content. Experimental data are expressed as average±standard deviation (X±s), analyzed with SPSS 11.5 statistic software, with P<0.05 meaning significant difference.
Kunming mice of clean grade (male, weight 20±2 g) are randomly divided into normal group, model group, bifendate (Zhejiang Wanbang Pharmaceutical Co., Ltd) positive control group (200 mg/kg), AD group (0.88 mmol/kg), low dosage group (0.66 mmol/kg) and high dosage (0.88 mmol/kg) group of compound D. ALT, AST, and MDA assay kits are purchased from Nanjing Jiancheng Bioengineering Institute. Other agents, drugs and experimental methods are the same as in EXAMPLE 1.
In experimental investigation of both models, the following grouping method is used: Kunming mice of clean grade (male, weight 20±2 g) are randomly divided into normal group, model group, bifendate group (200 mg/kg), AD group (0.88 mmol/kg), low dosage group (0.66 mmol/kg) and high dosage group (0.88 mmol/kg) of compound E, with 8 mice in each group. Other agents, drugs and experimental methods are the same as in EXAMPLE 1 and in EXAMPLE 4, respectively.

[2] = test system: bovine viral diarrhea virus (BVDV-AV69); test: CPE observation of effects on cytopathy caused by BVDV in MDBK cells; details: for antiviral effect compared with AD / pharmaceutical effect against cytopathy caused by virus compared with ribavirin: BVDV in MDBK cells; for TI value (therapy index, TC50/IC50): MDBK cells, BVDV-AV69, TC50 from MTT, IC50 from CPE
Procedure: Pharmaceutical effects of drugs of the invention against cytopathy caused by inoculation of BVDV virus are investigated using MDBK (NBL-1) cells (purchased from Chinese Academy of Science's Shanghai Center for Type Culture Collection) and bovine viral diarrhea virus (BVDV-AV69) (purchased from China Institute of Veterinary Drugs Control). Ribavirin (R; Henan RunHong Pharmaceutical Co., Ltd; batch number: E0909604) is used as positive drug control. MDBK cells are prepared as a suspension (1×10^5/mL) in RPMI1640 culture medium which contains 10% in volume fetal bovine serum (Zhejiang Tianhang Biotechnology Co., Ltd; batch number: 100524), 100 μg/mL streptomycin (Shenzheng Huayao Nanfang Pharmaceutical Co., Ltd; batch number: N09081), 100 U/mL penicillin (North China Pharmaceutical Co., Ltd; batch number: E0909604), and are seeded in 96 well plates (Costar, US) at 200 μL/well, placed in an incubator (Binder, Germany) at 37° C. with 5% CO2 to culture the cell. In 24 h when cells grow into a single layer, virus solution of 100 TCID50 (TCID50=10^−2.5) is added and incubated for 1.5 h. Maintenance medium with the drug is added at 200 μL/well after 3×PBS washes.
After digestion of MDBK cells with trypsin, cells with a concentration of 1×10^5/mL are seeded into 96 well plates at 200 μL/well, placed in an incubator at 37° C. with 5% CO2 for 24 h. After growing into a single layer, cells are attacked using 100 TCID50 (TCID50=10^−2.5) virus and incubated for 1.5 h. The virus-containing maintenance medium is discarded, and cells are washed with PBS, followed by addition of drug-containing maintenance medium with different concentrations, and incubation in 5% CO2 at 37° C. Normal cell control, virus control, drug treatment and ribavirin treatment groups are set. The cytopathy developing status is recorded everyday by observing under an inverted microscope.

MDBK (NBL-1) cells = test: MTT assay for cytotoxicity; assay type: cell-based, bovine
Procedure: The drug-containing medium is added and further incubated for 48 h. MTT is added (5 mg/mL) at 20 μL/well and cultured for 4 h, the supernatant is discarded and 150 μL DMSO is added, then the plate is shaken for 10 minutes and the absorbance is determined using a microplate reader using the wavelength 570 nm and a reference wavelength 450 nm. The cell survival rate is calculated after treatment of compounds: cell survival rate (%)=drug group A value/cell control group A value×100%, and the results are shown in FIG. 10. Cell proliferation inhibition rate (%)=100%−survival rate (%), half maximal (50%) toxic concentration (TC50) is calculated according to Reed-Muench method.

[3] = test system: mice with carbon tetrachloride induced liver damage; test: Carbon tetrachloride induced chemical liver damage model in mice; assay type: in vivo, Kunming mice; details: for protective effect against liver damage induced by carbon tetrachloride (summary): mice, intragastric, 3 days
Procedure: Kunming mice of clean grade (male, weight 20±2 g), after adaptively fed for 3 days, are randomly divided into normal group, model group, bifendate positive control group (200 mg/kg), AD group (0.88 mmol/kg), low dosage group (0.66 mmol/kg) and high dosage group (0.88 mmol/kg) of compound A, B, C and D, with 8 mice in each group. Positive group and each test group are intragastrically given with respective suspension prepared with 0.5% CMC-Na, and normal group and model group are given with 0.5% CMC-Na. The drugs are given for 3 days, and 1 h after the last administration, all mice except those in the normal group are intraperitoneally injected with a single dose of 0.3% carbon tetrachloride in peanut oil (0.1 mL/10 g). After 16 h, the eyeball of the mice in each group is enucleated to collect blood, which is centrifuged at 3000 rpm for 15 min to separate serum. ALT and AST activities are tested respectively (Nanjing Jiancheng Bioengineering Institute). The left lobe of liver is taken to prepare 10% homogenate using physiological saline, MDA (Nanjing Jiancheng Bioengineering Institute) and PGE2 contents are determined. Experimental data are expressed as average±standard deviation (X±s), analyzed with SPSS 11.5 statistic software, with P<0.05 meaning there is a significant difference. Other agents, drugs and experimental methods are the same as in EXAMPLE 1. In experimental investigation of both models, the following grouping method is used: Kunming mice of clean grade (male, weight 20±2 g) are randomly divided into normal group, model group, bifendate group (200 mg/kg), AD group (0.88 mmol/kg), low dosage group (0.66 mmol/kg) and high dosage group (0.88 mmol/kg) of compound E, with 8 mice in each group. Other agents, drugs and experimental methods are the same as in EXAMPLE 1 and in EXAMPLE 4, respectively.

[4] = high dosage 0.88 mmol/kg vs AD 0.88 mmol/kg, P<0.05
[5] = high dosage 0.88 mmol/kg, P<0.01
[6] = low dosage 0.66 mmol/kg, P<0.05 (D), P<0.01 (E)
[7] = dosage groups not distinguished (0.66 and 0.88 mmol/kg), P<0.01
[8] = dosage groups not distinguished, P<0.01
[9] = high dosage 0.88 mmol/kg, P<0.05
[10] = low dosage 0.66 mmol/kg vs AD 0.88 mmol/kg, P<0.05
[11] = low dosage 0.66 mmol/kg, P<0.01

C=C1CCC2C(C)(COC(=O)c3cccnc3)C(OC(=O)c3cccnc3)CCC2(C)C1C=CC1=CC(=Cc2ccc(Cl)cc2)OC1=O (stereo not shown) [Compound D, 15-p-chlorobenzylidene-3,19-nicotinate-14-deoxy-11,12-dehydroandrographolide]
PGE2 content in liver homogenate relative to normal group ([1]; high dosage 0.88 mmol/kg): close to that of normal group | enzyme (ALT, AST) lowering effect compared to AD group [1, 4]: obviously increased abilities to lower the enzymes | ALT activity in serum vs model group [1, 5]: notably decreased | AST activity in serum vs model group [1, 5]: notably decreased | MDA content in liver homogenate vs model group [1, 5]: significantly reduce | PGE2 content in liver homogenate vs model group [1, 5]: significantly reduce | ability against liver lipid peroxidation compared with AD group ([1]; high dosage 0.88 mmol/kg, P<0.01 (B, C), P<0.05 (D)): obviously increased abilities | PGE2 content in liver homogenate vs model group ([1]; low dosage 0.66 mmol/kg, P<0.05 (A), P<0.01 (D)): significantly reduce | ALT activity in serum vs model group [1, 6]: notably decreased | AST activity in serum vs model group [1, 6]: notably decreased | MDA content in liver homogenate vs model group ([1]; low dosage (printed 0.66 mol/kg), P<0.01): significantly reduce | protective effect against liver damage induced by ConA (summary) [1]: significant protective effect | antiviral effect compared with AD [2]: better antiviral effect than AD | pharmaceutical effect against cytopathy caused by virus compared with ribavirin [2]: better than ribavirin | TI value (therapy index, TC50/IC50) [2]: >127.6 | cytotoxicity to MDBK cells (MDBK (NBL-1) cells; 0-7.5 μmol/L, 48 h): do not show obvious cytotoxcity | ALT activity in serum vs model group [3, 7]: notably suppress the increase | AST activity in serum vs model group [3, 7]: notably suppress the increase | MDA level in liver homogenate vs model group [3, 8]: effectively reduce | PGE2 level in liver homogenate vs model group [3, 8]: effectively reduce | magnitude of decrease in ALT activity compared to AD group [3, 4]: significantly better | magnitude of decrease in AST activity compared to AD group [3, 4]: significantly better | PGE2 content compared to AD group [3, 9]: notably lower | ability to reduce lipid peroxide level in liver homogenate compared to AD group [3, 9]: stronger ability to reduce the lipid peroxide level | magnitude of decrease in ALT activity compared to AD group [3, 10]: significantly better | magnitude of decrease in AST activity compared to AD group [3, 10]: significantly better | PGE2 content compared to AD group ([3]; low dosage 0.66 mmol/kg, P<0.05): notably lower | protective effect against liver damage induced by carbon tetrachloride (summary) [3]: protective effect

C=C1CCC2C(C)(COC(=O)CCC(=O)O)C(OC(=O)CCC(=O)O)CCC2(C)C1C=CC1=CC(=Cc2ccc(Cl)cc2)OC1=O (stereo not shown) [Compound E]
ALT activity in serum compared with AD group [1, 4]: notably lower than AD group | AST activity in serum compared with AD group [1, 4]: notably lower than AD group | ALT activity in serum vs model group [1, 5]: notably decrease | AST activity in serum vs model group [1, 5]: notably decrease | ALT activity in serum compared with AD group [1, 10]: notably lower than AD group | AST activity in serum compared with AD group [1, 10]: notably lower than AD group | ALT activity in serum vs model group [1, 6]: notably decrease | AST activity in serum vs model group [1, 6]: notably decrease | protective effect against liver damage induced by ConA (summary) [1]: significant protective effect | antiviral effect compared with AD [2]: better antiviral effect than AD | pharmaceutical effect against cytopathy caused by virus compared with ribavirin [2]: better than ribavirin | TI value (therapy index, TC50/IC50) [2]: >250 | cytotoxicity to MDBK cells (MDBK (NBL-1) cells; 0-7.5 μmol/L, 48 h): do not show obvious cytotoxcity | cytotoxicity to MDBK cells (MDBK (NBL-1) cells; 30 μmol/L): shows no cytotoxcity | magnitude of decrease in ALT activity compared to AD group [3, 4]: notably lower | magnitude of decrease in AST activity compared to AD group [3, 4]: notably lower | ALT activity in serum vs model group [3, 5]: notably decrease | AST activity in serum vs model group [3, 5]: notably decrease | ALT activity in serum vs model group [3, 11]: notably decrease | AST activity in serum vs model group [3, 11]: notably decrease | protective effect against liver damage induced by carbon tetrachloride (summary) [3]: significant protective effect

— patent US9636324B2, “Use of 15-benzylidence-14-deoxy-11, 12 -dehyroandrographolide derivative in manufacture of medicaments for protecting liver and anti-hepatitis C virus” (Zhengzhou University, priority 2012, dated 2017)
